Where two headings read alike, the source gives them in different places.

From patent publication US9951040B2, “1,3,5 -triazine based PI3K inhibitors as anticancer agents and a process for the preparation thereof” (Council of Scientific and Industrial Research, priority 2014, dated 2018) come the findings set out here.

For test [1], the system named is MDA-MB231 Cell line. The test is described as follows: MTT cell proliferation assay, MDA-MB231. Type of test: cell-based. Particulars: Homo sapiens, MDA-MB-231, 120 h, 5 days. As to the method:
(§1) Human breast cancer cell lines MDAMB231, MFC-7 and human prostate carcinoma cell line PC-3 were obtained from European Collection of Cell Cultures (ECACC). Cells were grown in […] medium supplemented with 10% fetal bovine serum (FBS), penicillin (100 units/ml), streptomycin (100 μg/ml), L-glutamine (0.3 mg/ml), sodium pyruvate ([…]), and NaHCO3 (2 mg/ml). Cells were grown in CO2 incubator (Thermocon Electron Corporation, USA) at 37° C. in an atmosphere of 95% air and 5% CO2 with 98% humidity. Different molecules were dissolved in DMSO and were delivered to cell cultures in complete medium.
(§2) MTT assay was done to determine the viability of the cells and was done as described previously (Kumar et al, 2013). Briefly, 6×10^3 were seeded in 96 well plates and were treated with different concentrations of different molecules for 5 days. 20 μl of MTT dye (2.5 mg/ml) was added 3 h before the termination of the experiment. Formazen crystals were dissolved in 150 μl of DMSO and OD was measured at 570 nm.
In general terms: Tetrazolium assays rely on reduction of a dye to a coloured formazan, in cell work by metabolically active cells.

In test [2] the test system is PC-3 Cell line. The test is described as follows: MTT cell proliferation assay, PC-3. Particulars: Homo sapiens, PC-3, 120 h, 5 days. Type of test: cell-based. As to the method:
as §1, §2

For test [3], the system named is MCF-7 Cell line. As to the kind of experiment: MTT cell proliferation assay, MCF-7. Type of test: cell-based. Particulars: Homo sapiens, MCF7, 120 h, 5 days. As for the experimental part: as §1, §2
For test [4], the target named is PI3K alpha (Homo sapiens, UniProt P42336). As to the kind of experiment: PI3K-α assay (ADP-Glo enzyme inhibition). Type of test: biochemical. To be noted: at 500 nm. As for the experimental part: Compounds were evaluated for their ability to inhibit class I PI3-kinase enzyme alpha as given below. PI3K-α Assay: PI3K alpha (diluted in 12.5 mM Glycine-NaOH (pH 8.5), 50 mM KCl, 2.5 mM MgCl2, 1 mM DTT, 0.05% CHAPS) is assayed in total volume of 20 ul containing 12.5 mM glycine-NaOH (pH 8.5), 50 mM KCl, 2.5 mM MgCl2, 1 mM DTT, 0.05% CHAPS, 0.01 mM ATP and 0.05 mM diC8 PIP2. The enzyme is assayed for 80 min after which 20 ul of ADP-Glo reagent is added. After a further incubation of 40 min, 40 ul of Kinase Detection Buffer is added. The assays are incubated for 40 min and then read on PerkinElmer Envision for 1 sec/well.
A general note: ADP-Glo first removes unused ATP, then detects ADP through luciferase.

Setting [5] is: read-out: In vitro PI3K α % of inhibition.
The mark [6] stands for this setting: read-out: inhibition against PI3K alpha.

PI3K alpha, sequence (P42336 whole entry, species assumed): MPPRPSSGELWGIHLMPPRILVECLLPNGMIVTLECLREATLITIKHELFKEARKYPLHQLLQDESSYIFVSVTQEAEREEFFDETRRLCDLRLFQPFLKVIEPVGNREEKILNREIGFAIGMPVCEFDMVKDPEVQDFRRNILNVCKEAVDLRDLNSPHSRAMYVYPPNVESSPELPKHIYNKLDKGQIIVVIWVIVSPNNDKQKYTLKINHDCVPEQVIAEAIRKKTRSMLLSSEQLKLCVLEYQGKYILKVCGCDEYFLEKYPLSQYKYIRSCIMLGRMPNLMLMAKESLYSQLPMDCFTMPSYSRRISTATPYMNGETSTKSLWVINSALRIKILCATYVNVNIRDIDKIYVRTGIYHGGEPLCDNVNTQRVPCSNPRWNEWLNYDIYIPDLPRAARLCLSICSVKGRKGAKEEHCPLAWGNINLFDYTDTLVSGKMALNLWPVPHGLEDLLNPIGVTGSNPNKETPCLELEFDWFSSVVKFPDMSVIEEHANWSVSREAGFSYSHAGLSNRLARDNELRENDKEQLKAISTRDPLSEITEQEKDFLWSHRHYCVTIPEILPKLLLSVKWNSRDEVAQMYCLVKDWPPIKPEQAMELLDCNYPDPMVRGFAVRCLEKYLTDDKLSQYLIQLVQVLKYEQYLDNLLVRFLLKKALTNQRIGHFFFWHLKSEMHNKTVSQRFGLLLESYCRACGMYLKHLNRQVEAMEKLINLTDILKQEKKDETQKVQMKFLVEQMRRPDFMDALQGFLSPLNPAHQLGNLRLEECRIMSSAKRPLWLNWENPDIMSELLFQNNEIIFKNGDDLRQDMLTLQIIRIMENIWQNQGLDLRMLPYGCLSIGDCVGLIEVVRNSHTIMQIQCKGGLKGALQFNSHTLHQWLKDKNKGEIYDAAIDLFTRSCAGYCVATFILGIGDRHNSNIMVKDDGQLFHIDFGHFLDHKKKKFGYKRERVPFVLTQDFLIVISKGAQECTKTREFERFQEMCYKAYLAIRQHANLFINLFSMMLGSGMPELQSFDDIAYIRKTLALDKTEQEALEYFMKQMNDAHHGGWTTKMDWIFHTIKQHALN
PI3K alpha, sequence (P27986 whole entry partner, species assumed): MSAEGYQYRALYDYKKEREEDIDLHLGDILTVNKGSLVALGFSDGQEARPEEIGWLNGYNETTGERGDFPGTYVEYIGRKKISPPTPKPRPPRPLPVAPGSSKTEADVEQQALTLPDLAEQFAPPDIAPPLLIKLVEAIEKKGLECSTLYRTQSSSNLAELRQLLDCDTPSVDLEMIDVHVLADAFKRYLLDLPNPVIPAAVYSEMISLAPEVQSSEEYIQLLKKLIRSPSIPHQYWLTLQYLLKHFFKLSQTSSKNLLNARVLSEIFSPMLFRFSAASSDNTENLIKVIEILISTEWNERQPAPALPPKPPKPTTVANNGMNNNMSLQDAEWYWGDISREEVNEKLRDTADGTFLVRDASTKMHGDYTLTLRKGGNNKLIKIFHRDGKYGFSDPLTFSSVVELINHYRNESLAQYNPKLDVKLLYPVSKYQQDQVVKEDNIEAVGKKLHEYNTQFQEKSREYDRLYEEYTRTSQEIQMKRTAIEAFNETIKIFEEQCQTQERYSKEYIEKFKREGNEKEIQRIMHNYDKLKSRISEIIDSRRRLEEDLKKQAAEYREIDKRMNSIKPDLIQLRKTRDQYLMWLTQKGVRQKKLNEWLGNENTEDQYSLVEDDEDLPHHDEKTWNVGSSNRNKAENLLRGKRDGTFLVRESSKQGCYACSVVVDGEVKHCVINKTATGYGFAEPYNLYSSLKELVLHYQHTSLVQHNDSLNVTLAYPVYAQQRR

For orientation: inhibition means the drop in the measured response relative to a control, in per cent. For the compound `Cc1ccccc1NC1CCN(c2nc(N3CCOCC3)nc(-n3c(C(F)F)nc4ccccc43)n2)CC1` [1B32, 1-(4-(2-(difluoromethyl)-1H-benzo[d]imidazol-1-yl)-6-morpholino-1,3,5-triazin-2-yl)-N-(o-tolyl)piperidin-4-amine], the inhibition at 10 µM in test [1] was 30 to 50%; in test [2], 30 to 50%; in test [3], more than 50%. Besides, the inhibition at 0.5 µM in test [4] (setting [5]) fell in the range of 50 to 70%.
Turning to `FC(F)c1nc2ccccc2n1-c1nc(N2CCOCC2)nc(N2CCC(Oc3ccc(Cl)cc3)CC2)n1` [1B5, 4-(4-(4-(4-chlorophenoxy)piperidin-1-yl)-6-(2-(difluoromethyl)-1H-benzo[d]imidazol-1-yl)-1,3,5-triazin-2-yl)morpholine], the inhibition at 10 µM in test [1] is 30 to 50%; in test [3], more than 50%. Besides, the inhibition at 0.5 µM in test [4] (setting [5]) fell in the range of 50 to 70%.
On the same counts, the results for `FC(F)c1nc2ccccc2n1-c1nc(N2CCOCC2)nc(N2CCC(Oc3ccccc3Cl)CC2)n1` [1B7, 4-(4-(4-(2-chlorophenoxy)piperidin-1-yl)-6-(2-(difluoromethyl)-1H-benzo[d]imidazol-1-yl)-1,3,5-triazin-2-yl)morpholine] are 30 to 50%, more than 50% and 50 to 70%.
Turning to `O=C(N(c1ccccc1)c1nc(N2CCOCC2)nc(N2CCC(Oc3ccc(OC(F)(F)F)cc3)CC2)n1)C(F)(F)F` [1A9, 2,2,2-trifluoro-N-(4-morpholino-6-(4-(4-(trifluoromethoxy)phenoxy)piperidin-1-yl)-1,3,5-triazin-2-yl)-N-phenylacetamide], the results for the inhibition at 10 µM in test [1], in test [2] and in test [3] were more than 50%, 30 to 50% and more than 50%, respectively. In addition, the inhibition at 0.5 µM in test [4] (setting [5]) and in test [4] (setting [6]) was more than 70% each time.
In the case of `Cc1cccc(OC2CCN(c3nc(N4CCOCC4)nc(-n4c(C(F)F)nc5ccccc54)n3)CC2)c1` [1B11, 4-(4-(2-(difluoromethyl)-1H-benzo[d]imidazol-1-yl)-6-(4-(m-tolyloxy)piperidin-1-yl)-1,3,5-triazin-2-yl)morpholine], the inhibition at 10 µM in test [1] was 30 to 50%; in test [2], more than 50%. Also, the inhibition at 0.5 µM in test [4] (setting [5]) and in test [4] (setting [6]) was more than 70% throughout.
With `FC(F)c1nc2ccccc2n1-c1nc(N2CCOCC2)nc(N2CCOCC2)n1` [ZSTK474, reference compound], the inhibition at 10 µM in test [1], in test [2] and in test [3] was more than 50% throughout. Besides, the “In vitro PI3K α % of inhibition” value in test [4] is “++ (++ indicates greater than 70% of inhibition)”.
Consider `COc1ccc(NC2CCN(c3nc(N4CCOCC4)nc(-n4c(C(F)F)nc5ccccc54)n3)CC2)cc1` [1B24, 1-(4-(2-(difluoromethyl)-1H-benzo[d]imidazol-1-yl)-6-morpholino-1,3,5-triazin-2-yl)-N-(4-methoxyphenyl)piperidin-4-amine], for which, in test [1], the inhibition at 10 µM fell in the range of 30 to 50%. In addition, the inhibition at 0.5 µM in test [4] (setting [5]) and in test [4] (setting [6]) was more than 70% in each case.
For the compound `Fc1ccccc1NC1CCN(c2nc(N3CCOCC3)nc(-n3c(C(F)F)nc4ccccc43)n2)CC1` [1B27, 1-(4-(2-(difluoromethyl)-1H-benzo[d]imidazol-1-yl)-6-morpholino-1,3,5-triazin-2-yl)-N-(2-fluorophenyl)piperidin-4-amine], the figures for the inhibition at 10 µM in test [1], in test [2] and in test [3] were 30 to 50%, 30 to 50% and more than 50%, respectively. Besides, the inhibition at 0.5 µM in test [4] (setting [5]) was 50 to 70%.
Turning to `Fc1ccc(OC2CCN(c3nc(N4CCOCC4)nc(-n4c(C(F)F)nc5ccccc54)n3)CC2)cc1` [1B1, 4-(4-(2-(difluoromethyl)-1H-benzo[d]imidazol-1-yl)-6-(4-(4-fluorophenoxy)piperidin-1-yl)-1,3,5-triazin-2-yl)morpholine], the inhibition at 10 µM in test [1], in test [2] and in test [3] was more than 50% throughout. Also, the inhibition at 0.5 µM in test [4] (setting [5]) and in test [4] (setting [6]) was more than 70% each time.
`COc1ccc(OC2CCN(c3nc(N4CCOCC4)nc(-n4c(C(F)F)nc5ccccc54)n3)CC2)cc1` [1B2, 4-(4-(2-(difluoromethyl)-1H-benzo[d]imidazol-1-yl)-6-(4-(4-methoxyphenoxy)piperidin-1-yl)-1,3,5-triazin-2-yl)morpholine]: the inhibition at 10 µM in test [1] was more than 50%; in test [2] it was 30 to 50%; in test [3], more than 50%. For the same compound, the inhibition at 0.5 µM in test [4] (setting [5]) was 50 to 70%.
With `FC(F)c1nc2ccccc2n1-c1nc(N2CCOCC2)nc(N2CCC(Nc3ccc(Cl)c(Cl)c3)CC2)n1` [1B26, N-(3,4-dichlorophenyl)-1-(4-(2-(difluoromethyl)-1H-benzo[d]imidazol-1-yl)-6-morpholino-1,3,5-triazin-2-yl)piperidin-4-amine], the inhibition at 10 µM is more than 50% in test [1], 30 to 50% in test [2] and more than 50% in test [3]. The inhibition at 0.5 µM in test [4] (setting [5]) and in test [4] (setting [6]) was more than 70% each time.
Consider `Cc1ccc(NC2CCN(c3nc(N4CCOCC4)nc(-n4c(C(F)F)nc5ccccc54)n3)CC2)cc1` [1B30, 1-(4-(2-(difluoromethyl)-1H-benzo[d]imidazol-1-yl)-6-morpholino-1,3,5-triazin-2-yl)-N-(p-tolyl)piperidin-4-amine], for which the inhibition at 10 µM in test [1] was 30 to 50%; in test [2] it was 30 to 50%; in test [3] it was more than 50%. In test [4] (setting [5]), the inhibition at 0.5 µM was in the range of 50 to 70%.
Take `FC(F)c1nc2ccccc2n1-c1nc(N2CCOCC2)nc(N2CCC(Nc3ccc(Br)cc3)CC2)n1` [1B25, N-(4-bromophenyl)-1-(4-(2-(difluoromethyl)-1H-benzo[d]imidazol-1-yl)-6-morpholino-1,3,5-triazin-2-yl)piperidin-4-amine]: the inhibition at 10 µM in test [2] was 30 to 50%; in test [3], more than 50%. The inhibition at 0.5 µM in test [4] (setting [5]) and in test [4] (setting [6]) was more than 70% each time.
In the case of `FC(F)c1nc2ccccc2n1-c1nc(N2CCOCC2)nc(N2CCC(Oc3cccc(Cl)c3)CC2)n1` [1B6, 4-(4-(4-(3-chlorophenoxy)piperidin-1-yl)-6-(2-(difluoromethyl)-1H-benzo[d]imidazol-1-yl)-1,3,5-triazin-2-yl)morpholine], the inhibition at 10 µM in test [2] was 30 to 50%; in test [3], more than 50%. Moreover, the inhibition at 0.5 µM in test [4] (setting [5]) is 50 to 70%.
Regarding `Cc1ccccc1OC1CCN(c2nc(N3CCOCC3)nc(-n3c(C(F)F)nc4ccccc43)n2)CC1` [1B12, 4-(4-(2-(difluoromethyl)-1H-benzo[d]imidazol-1-yl)-6-(4-(o-tolyloxy)piperidin-1-yl)-1,3,5-triazin-2-yl)morpholine], the inhibition at 10 µM in test [1] was 30 to 50%; in test [2] it was 30 to 50%; in test [3] it was more than 50%. Also, the inhibition at 0.5 µM in test [4] (setting [5]) and in test [4] (setting [6]) was more than 70% in each case.
For the compound `FC(F)c1nc2ccccc2n1-c1nc(N2CCOCC2)nc(N2CCC(Nc3ccc(C(F)(F)F)cc3)CC2)n1` [1B22, 1-(4-(2-(difluoromethyl)-1H-benzo[d]imidazol-1-yl)-6-morpholino-1,3,5-triazin-2-yl)-N-(4-(trifluoromethyl)phenyl)piperidin-4-amine], the inhibition at 10 µM in test [2] and in test [3] was 30 to 50% in each case. Besides, the inhibition at 0.5 µM in test [4] (setting [5]) lay within 50 to 70%.
On to `O=C(N(c1ccc(F)cc1)c1nc(N2CCOCC2)nc(N2CCC(Oc3ccccc3)CC2)n1)C(F)(F)F` [1A5, 2,2,2-trifluoro-N-(4-fluorophenyl)-N-(4-morpholino-6-(4-phenoxypiperidin-1-yl)-1,3,5-triazin-2-yl)acetamide], for which the inhibition at 10 µM in test [1] is 30 to 50%; in test [2] it was more than 50%; in test [3], 30 to 50%. Further, the inhibition at 0.5 µM in test [4] (setting [5]) and in test [4] (setting [6]) was more than 70% in each case.
